Laboratory results reported in patent publication US9403832B2, “Pyrazolo[1,5-a]pyrimidine-based compounds, compositions comprising them, and methods of their use” (Lexicon Pharmaceuticals, Inc., priority 2012, dated 2016).

Target: T1, AAK1 (Homo sapiens, UniProt Q2M2I8)
T1 construct: NP_055726.2
Experiment: P81 filter plate assay
Assay type: biochemical
Details: full-length human AAK1, Mu2 substrate, 33P-ATP
Procedure: Compounds were serially diluted into a Labcyte LDV plate (Labcyte, cat#LP-0200) using a Mutiprobe (PerkinElmer) and Biomek FX (Beckman Coulter) so that the highest compound concentration was at 96 μM. Compounds were then pinged (75 nL per well) into a Greiner 384-well reaction plate (Greiner, #781076) using an ECHO 550 Liquid Handler (Labcyte). A total of 12 μl reaction buffer (IMAP buffer containing Tween and DTT, from Molecular Devices) was then added to each well of columns 1 and 13 for the negative controls and 12 μl of 2× AAK1 (0.2 nM full-length human protein, NCBI accession no. NP_055726.2) was added to the remaining wells. Enzyme was then pre-incubated with compound for 10 minutes at RT. Reactions were initiated upon Minitrak (PerkinElmer) addition of 12 μl substrate mix containing 2× Mu2 (0.2 μM, full length human protein), 2× cold ATP (2 μM), and 1.3 μCi of hot ^33P-ATP. […] proceeded for one hour at RT. Meanwhile, Millipore 384-well P81 filter plates (Millipore, catalog #MZPHNOW10) were placed on a plate washer (Zoom ZW, from Titertek) and pre-wet with 50 μl 1% phosphoric acid. Kinase reactions were then stopped upon addition of 24 μl of 2% phosphoric acid to each well and the Minitrak was then used to transfer 40 μl from each well into the pre-wet Millipore 384-well P81 filter plates. Reaction mixtures were incubated for 10 minutes at RT in the P81 plates, followed by washing five times with 100 μl/well of 1% phosphoric acid using the Zoom filter washer. The bottom of each filter plate was sealed followed by addition of 20 μl Microscint 40 to each well, sealing the top of the plates with Flashplate cover, and then waiting one hour until reading on the TopCount (PerkinElmer).

T1 sequence (Q2M2I8 1-863 isoform Q2M2I8-2): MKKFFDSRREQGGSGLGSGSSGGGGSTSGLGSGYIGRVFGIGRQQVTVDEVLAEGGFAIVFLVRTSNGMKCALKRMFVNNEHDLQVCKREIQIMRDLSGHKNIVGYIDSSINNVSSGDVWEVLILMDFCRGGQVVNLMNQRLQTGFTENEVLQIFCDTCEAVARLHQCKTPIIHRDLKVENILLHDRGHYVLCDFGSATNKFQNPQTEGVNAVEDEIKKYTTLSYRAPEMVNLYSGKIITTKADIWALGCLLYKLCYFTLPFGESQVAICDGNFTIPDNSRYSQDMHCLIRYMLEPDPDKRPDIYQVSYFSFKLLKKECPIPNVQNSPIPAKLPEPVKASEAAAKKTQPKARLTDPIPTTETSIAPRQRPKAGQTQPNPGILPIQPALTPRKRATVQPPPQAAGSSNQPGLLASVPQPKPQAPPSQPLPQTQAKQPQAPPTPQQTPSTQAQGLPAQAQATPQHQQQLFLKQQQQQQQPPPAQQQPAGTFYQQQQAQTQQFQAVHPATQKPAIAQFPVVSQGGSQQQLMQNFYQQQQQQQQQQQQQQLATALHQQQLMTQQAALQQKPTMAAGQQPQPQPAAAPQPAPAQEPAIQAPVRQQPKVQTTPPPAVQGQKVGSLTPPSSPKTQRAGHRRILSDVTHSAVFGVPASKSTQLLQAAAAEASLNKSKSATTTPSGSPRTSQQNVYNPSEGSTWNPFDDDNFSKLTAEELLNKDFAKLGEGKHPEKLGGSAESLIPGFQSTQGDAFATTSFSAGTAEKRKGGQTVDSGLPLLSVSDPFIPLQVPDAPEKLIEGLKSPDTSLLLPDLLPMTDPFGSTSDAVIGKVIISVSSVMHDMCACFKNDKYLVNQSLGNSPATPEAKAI

| IC50 | SMILES |
| --- | --- |
| ≤ 100 nM | CC(C)OC(=O)N1CCN(c2ccn3ncc(-c4cccnc4OCCN(C)C)c3n2)CC1 [isopropyl 4-(3-(2-(2-(dimethylamino)ethoxy)pyridin-3-yl)pyrazolo[1,5-a]pyrimidin-5-yl)piperazine-1-carboxylate] |
| ≤ 100 nM | COc1ncccc1-c1cnn2ccc(N3CCN(C(=O)C(C)(C)N)CC3)nc12 [2-amino-1-(4-(3-(2-methoxypyridin-3-yl)pyrazolo[1,5-a]pyrimidin-5-yl)piperazin-1-yl)-2-methylpropan-1-one] |
| ≤ 100 nM | COCc1cn(-c2ccn3ncc(-c4cccnc4OC)c3n2)cn1 [5-(4-(methoxymethyl)-1H-imidazol-1-yl)-3-(2-methoxypyridin-3-yl)pyrazolo[1,5-a]pyrimidine] |
| ≤ 10 nM | Cc1ccc(-c2cnn3ccc(N4CCN(C(=O)OC(C)C)CC4)nc23)c(=O)n1C [isopropyl 4-(3-(1,6-dimethyl-2-oxo-1,2-dihydropyridin-3-yl)pyrazolo[1,5-a]pyrimidin-5-yl)piperazine-1-carboxylate] |
| ≤ 10 nM | CCOC(=O)N1CCN(c2ccn3ncc(-c4ccc(OC)nc4OC)c3n2)CC1 [ethyl 4-(3-(2,6-dimethoxypyridin-3-yl)pyrazolo[1,5-a]pyrimidin-5-yl)piperazine-1-carboxylate] |
| ≤ 100 nM | COc1ncccc1-c1cnn2ccc(N(C)CCN(C)C(=O)OC(C)C)nc12 [isopropyl (2-((3-(2-methoxypyridin-3-yl)pyrazolo[1,5-a]pyrimidin-5-yl)(methyl)amino)ethyl)(methyl)carbamate] |
| ≤ 10 nM | COc1ccccc1-c1cnn2ccc(NC[C@@H]3CCCN3C(=O)NC(C)(C)C)nc12 [(S)-N-(tert-butyl)-2-(((3-(2-methoxyphenyl)pyrazolo[1,5-a]pyrimidin-5-yl)amino)methyl)pyrrolidine-1-carboxamide] |
| ≤ 10 nM | COc1ncccc1-c1cnn2ccc(OCCN(C)C(=O)OC(C)(C)C)nc12 [tert-butyl (2-((3-(2-methoxypyridin-3-yl)pyrazolo[1,5-a]pyrimidin-5-yl)oxy)ethyl)(methyl)carbamate] |
| ≤ 100 nM | [2H]C1([2H])N(C(=O)OC(C)C)C([2H])([2H])C([2H])([2H])N(c2ccn3ncc(Br)c3n2)C1([2H])[2H] [isopropyl 4-(3-bromopyrazolo[1,5-a]pyrimidin-5-yl)-d8-piperazine-1-carboxylate] |
| ≤ 10 nM | COc1ncc(F)cc1-c1cnn2ccc(N3CCN(C(=O)OC(C)C)CC3)nc12 [isopropyl 4-(3-(5-fluoro-2-methoxypyridin-3-yl)pyrazolo[1,5-a]pyrimidin-5-yl)piperazine-1-carboxylate] |
| ≤ 10 nM | COc1ccccc1-c1cnn2ccc(N3CCN(C(=O)OC(C)C)CC3)nc12 [isopropyl 4-(3-(2-methoxyphenyl)pyrazolo[1,5-a]pyrimidin-5-yl)piperazine-1-carboxylate] |
| ≤ 100 nM | CC(C)OC(=O)N1CCN(c2ccn3ncc(-c4cccn5ccnc45)c3n2)CC1 [isopropyl 4-(3-(imidazo[1,2-a]pyridin-8-yl)pyrazolo[1,5-a]pyrimidin-5-yl)piperazine-1-carboxylate] |
| ≤ 10 nM | CC(C)OC(=O)N1CCN(c2ccn3ncc(-c4cccn(C)c4=O)c3n2)CC1 [isopropyl 4-(3-(1-methyl-2-oxo-1,2-dihydropyridin-3-yl)pyrazolo[1,5-a]pyrimidin-5-yl)piperazine-1-carboxylate] |
| ≤ 10 nM | CC(C)OC(=O)N1CCN(c2ccn3ncc(-c4cncc(F)c4)c3n2)CC1 [isopropyl 4-(3-(5-fluoropyridin-3-yl)pyrazolo[1,5-a]pyrimidin-5-yl)piperazine-1-carboxylate] |
| ≤ 100 nM | COCCOc1ccccc1-c1cnn2ccc(N3CCN(C(=O)OC(C)C)CC3)nc12 [isopropyl 4-(3-(2-(2-methoxyethoxy)phenyl)pyrazolo[1,5-a]pyrimidin-5-yl)piperazine-1-carboxylate] |
| ≤ 100 nM | COc1ncccc1-c1cnn2ccc(N3CCN(C(=O)[C@H](N)CC(C)C)CC3)nc12 [(R)-2-amino-1-(4-(3-(2-methoxypyridin-3-yl)pyrazolo[1,5-a]pyrimidin-5-yl)piperazin-1-yl)-4-methylpentan-1-one] |
| ≤ 1000 nM | CN(C(=O)OC(C)(C)C)[C@H]1CCN(c2ccn3ncc(-c4ccccn4)c3n2)C1 [(S)-tert-butyl methyl(1-(3-(pyridin-2-yl)pyrazolo[1,5-a]pyrimidin-5-yl)pyrrolidin-3-yl)carbamate] |
| ≤ 1000 nM | COCc1ccccc1-c1cnn2ccc(N3CCN(C(=O)OC(C)C)CC3)nc12 [isopropyl 4-(3-(2-(methoxymethyl)phenyl)pyrazolo[1,5-a]pyrimidin-5-yl)piperazine-1-carboxylate] |
| ≤ 10 nM | CC(C)OC(=O)N1CCN(c2ccn3ncc(-c4cccnc4F)c3n2)CC1 [isopropyl 4-(3-(2-fluoropyridin-3-yl)pyrazolo[1,5-a]pyrimidin-5-yl)piperazine-1-carboxylate] |
| ≤ 1000 nM | CC(C)OC(=O)N(C)[C@H]1CCN(c2ccn3ncc(-c4ccccn4)c3n2)C1 [(S)-isopropyl methyl(1-(3-(pyridin-2-yl)pyrazolo[1,5-a]pyrimidin-5-yl)pyrrolidin-3-yl)carbamate] |
| ≤ 100 nM | COc1nc(C)ccc1-c1cnn2ccc(N(C)CCN(C)C(=O)OC(C)C)nc12 [isopropyl (2-((3-(2-methoxy-6-methylpyridin-3-yl)pyrazolo[1,5-a]pyrimidin-5-yl)(methyl)amino)ethyl)(methyl)carbamate] |
| ≤ 1000 nM | COc1ncc(F)cc1-c1cnn2ccc(N3CCN(CC(F)(F)F)CC3)nc12 [3-(5-fluoro-2-methoxypyridin-3-yl)-5-(4-(2,2,2-trifluoroethyl)piperazin-1-yl)pyrazolo[1,5-a]pyrimidine] |
